The values that follow come from patent US10314823B2, “Substituted 1,2-dihydro-3H-pyrrolo[1,2-c]imidazol-3-one antibacterial compounds” (IDORSIA PHARMACEUTICALS LTD, priority 2015, dated 2019).

Common to all, as to assay type: cell-based
The subject of test [1] is wild-type E. coli A-1261. The test is described as follows: MIC of prodrug with or without alkaline phosphatase or esterase. As for the experimental part:
Minimal Inhibitory Concentrations (MICs; mg/L) were determined in cation-adjusted Mueller-Hinton Broth by a microdilution method following the description given in “Methods for Dilution Antimicrobial Susceptibility Tests for Bacteria that Grow Aerobically”, Approved standard, 7th ed., Clinical and Laboratory Standards Institute (CLSI) Document M7-A7, Wayne, Pa., USA (2006).
The compound of Example 86 was tested against wild-type E. coli A-1261 in the absence of alkaline phosphatase or esterase, in the presence of an alkaline phosphatase and in the presence of an esterase. The corresponding antibacterial test results are given in Table 2 hereafter (MICs in mg/L).

Test [2] relates to K. pneumoniae A-651. Put plainly: Bacterial growth minimal inhibitory concentration (CLSI broth microdilution). The following applies: multiply resistant strain (in particular quinolone-resistant), cation-adjusted Mueller-Hinton Broth; for MIC: Klebsiella pneumoniae, A651. Put shortly: (§1)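 Cation-adjusted Mueller-Hinton broth; microdilution per CLSI M7-A7; MIC read in mg/L. Strains: K. pneumoniae A-651 (multiply resistant, quinolone-resistant); E. coli ATCC25922 and P. aeruginosa ATCC27853 (quinolone-sensitive).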
(In general: Broth dilution looks for growth in wells or tubes with falling amounts of substance.)

Test [3] has as its system E. coli ATCC25922. The description is as above. The note with it: quinolone-sensitive strain, cation-adjusted Mueller-Hinton Broth; for MIC: Escherichia coli, ATCC25922. Put shortly: as §1
The subject of test [4] is P. aeruginosa ATCC27853. The test is described as above. The following applies: quinolone-sensitive strain, cation-adjusted Mueller-Hinton Broth; for MIC: Pseudomonas aeruginosa, ATCC27853. In outline: as §1

Converted amounts (≈) assume the structure as drawn.

For the compound `C[C@@](CCN1Cc2cc(C#CC#CC3CN(CCO)C3)cn2C1=O)(C(=O)NOC(=O)CCc1ccccc1OP(=O)(O)O)S(C)(=O)=O` [Example 86, (2R)-2-(3-((4-(6-((1-(2-hydroxyethyl)azetidin-3-yl)buta-1,3-diyn-1-yl)-3-oxo-1H-pyrrolo[1,2-c]imidazol-2(3H)-yl)-2-methyl-2-(methylsulfonyl)butanamido)oxy)-3-oxopropyl)phenyl dihydrogen phosphate], in test [1] (alkaline phosphatase 2 i.U./mL), the “MIC for E. coli A-1261 In the presence of an alkaline phosphatase (2 i.U./mL)” value amounted to 1 µg/mL. In addition, the “MIC for E. coli A-1261 In the presence of an esterase (10 i.U./mL)” value in test [1] (esterase 10 i.U./mL) worked out at 16 µg/mL. In addition, the “MIC for E. coli A-1261 In the absence of alkaline phosphatase or esterase” value in test [1] (no alkaline phosphatase or esterase) came to 16 µg/mL.
Consider `C[C@@H]1[C@H](C#CC#Cc2cc3n(c2)C(=O)N(CC[C@](C)(C(=O)NO)S(C)(=O)=O)C3)CN1C` [Example 96, (2R)-4-(6-(((2R,3R)-1,2-dimethylazetidin-3-yl)buta-1,3-diyn-1-yl)-3-oxo-1H-pyrrolo[1,2-c]imidazol-2(3H)-yl)-N-hydroxy-2-methyl-2-(methylsulfonyl)butanamide], for which the MIC (commonly the least concentration at which growth counts as inhibited) in test [2] stood at 4 µg/mL (≈ 8.96 µM); in test [3], 4 µg/mL (≈ 8.96 µM); in test [4], 2 µg/mL (≈ 4.48 µM).
In the case of `CN1C[C@H](C#CC#Cc2cc3n(c2)C(=O)N(CC[C@](C)(C(=O)NO)S(C)(=O)=O)C3)[C@H]1CO` [Example 97, (2R)—N-hydroxy-4-(6-(((2S,3S)-2-(hydroxymethyl)-1-methylazetidin-3-yl)buta-1,3-diyn-1-yl)-3-oxo-1H-pyrrolo[1,2-c]imidazol-2(3H)-yl)-2-methyl-2-(methylsulfonyl)butanamide], the results for the MIC in test [2], in test [3] and in test [4] were 1 µg/mL (≈ 2.16 µM), 0.5 µg/mL (≈ 1.08 µM) and 0.5 µg/mL (≈ 1.08 µM), respectively.
For `CN1C[C@H](C#CC#Cc2cc3n(c2)C(=O)N(CC[C@](C)(C(=O)NO)S(C)(=O)=O)C3)[C@H]1CF` [Example 98, (2R)—N-hydroxy-4-(6-(((2S,3S)-2-(fluoromethyl)-1-methylazetidin-3-yl)buta-1,3-diyn-1-yl)-3-oxo-1H-pyrrolo[1,2-c]imidazol-2(3H)-yl)-2-methyl-2-(methylsulfonyl)butanamide], the MIC was found to be 0.25 µg/mL (≈ 0.538 µM) in test [2], 0.063 µg/mL (≈ 0.136 µM) in test [3] and 0.5 µg/mL (≈ 1.08 µM) in test [4].
Regarding `C[C@@](CCN1Cc2cc(C#CC#C[C@H]3C[C@H](CO)N(C4COC4)C3)cn2C1=O)(C(=O)NO)S(C)(=O)=O` [Example 100, (2R)—N-hydroxy-4-(6-(((3R,5R)-5-(hydroxymethyl)-1-(oxetan-3-yl)pyrrolidin-3-yl)buta-1,3-diyn-1-yl)-3-oxo-1H-pyrrolo[1,2-c]imidazol-2(3H)-yl)-2-methyl-2-(methylsulfonyl)butanamide], the MIC in test [2], in test [3] and in test [4] was 4 µg/mL (≈ 7.71 µM) each time.
As to “(2R)-4-(6-((1-isopropylazetidin-3-yl)buta-1,3-diyn-1-yl)-3-oxo-1H-pyrrolo[1,2-c]imidazol-2(3H)-yl)-2-methyl-2-(methylsulfonyl)-N-((tetrahydro-2H-pyran-2-yl)oxy)butanamide [Example 59]”, the “MIC for K. Pneumoniae A-651” value in test [2] came to 0.5 µg/mL. In addition, in test [3], the “MIC for E. coli ATCC25922” value stood at 1 µg/mL. Besides, in test [4], the “MIC for P. aeruginosa ATCC27853” value is 0.5 µg/mL.
